One data set deals with ptosis with reserpine. The data set can be described thus: inhibition of reserpine ptosis in Swiss mice (B. Rubin et al.). The format is in vivo. The following applies: simultaneously with reserpine 5 mg/kg intraperitoneally, ptosis measured at 1, 1.5 and 2 hours; for ED50 (dose inhibiting reserpine ptosis by an average of 50%): oral; for ED50: Mus musculus, po, read-out: ED50 (dose inhibiting reserpine ptosis by an average of 50%). As for the experimental part:
This mood-altering activity can be determined by standard, routine tests well known specialists. […] In Swiss mice, a compound was administered orally simultaneously with reserpine given interperitoneally at a dose of 5 mg/kg. Ptosis measured according to B. Rubin et al. (J. Pharmacol. Exp. […] (3-dimethylamino propylidene-5-dibenzo [a,d] 1,4-cycloheptadiene hydrochloride).

The test system of the next data set is Swiss mice. To be noted: oral.
The nature of data set [1]: clinical test of the medication containing the active compound of Example 5 A. It counts as in vivo, human. From the text: The following are observations recorded during a clinical test of the medication containing the active compound of Example 5 A.
Another data set in a line: in vivo. To be noted: mouse, po.
[2] abbreviates: Case No. 1, 5 mg daily for 30 days.
Where [3] appears, read: Case No. 2, 20 mg daily for 30 days.
The mark [4] stands for this setting: Case No. 3, 10 mg daily for 20 days.
[5] abbreviates: Case No. 4, 25 mg daily for 45 days.
Where [6] appears, read: Case No. 5, 5 mg daily for 30 days.
[7] abbreviates: Case No. 6, 25 mg daily for 30 days.
Setting [8] is: LD50, administered orally, Swiss mice.

Structures can show the parent of a compound that is named as a salt.

As for `CN1CCC23NC(=O)CC(c4ccccc4O2)C3C1` (single isomer, unassigned) [Example 1 A, 4a-amino-2-methyl-1,2,3,4,4a,10a-hexahydro [10 H] benzopyrano-[3,2-c]pyrid-10-yl acetic acid lactam], the “ED50 (dose inhibiting reserpine ptosis by an average of 50%)” value with ptosis with reserpine came to 6 mg/kg. For the same compound, the “LD50, administered orally” value in the data set on Swiss mice is listed as 2,700 mg/kg.
As to `CN1CCC23NC(=O)CC(c4ccccc4O2)C3C1` (single isomer, unassigned) [Example 1 B, 4a-amino-2-methyl-1,2,3,4,4a,10a-hexahydro [10 H] benzopyrano-[3,2-c]pyrid-10-yl acetic acid lactam], the “ED50 (dose inhibiting reserpine ptosis by an average of 50%)” value with ptosis with reserpine turned out to be 24 mg/kg. In addition, the “LD50, administered orally” value in the data set on Swiss mice was found to be 600 mg/kg.
For `CN1CCC23NC(=O)CC(c4cc(Cl)ccc4O2)C3C1` (single isomer, unassigned) [Example 5 A, 4a-amino-8-chloro-2-methyl-1,2,3,4,4a,10a-hexahydro[10 H]benzopyrano[3,2c]pyrid-10-ylacetic acid lactam], the “ED50 (dose inhibiting reserpine ptosis by an average of 50%)” value in the data set with ptosis with reserpine is given as 0.04 mg/kg. Moreover, the Activity entry was “Weight gain. Improvement of mood and sociability” in data set [1] (Case No. 1, pre-senile depression, 5 mg daily for 30 days, with NOZINAN-SUREPTIL); “Weight gain. Improvement of mood and sleep. Reduced anxiety. Relief of hypochondriac complaints” in data set [1] (Case No. 2, post-neuroleptic depression with schizophrenia, 20 mg daily for 30 days, with NOZINAN-ARTANE-GARDENAL); “The patient was less preoccupied with their body. Decrease of compulsive washing. Improvement of social behavior” in data set [1] (Case No. 3, serious hypochondriac depressive syndrome, 10 mg daily for 20 days, with MEPRONIZINE); “Improvement of mood. Less pessimistic attitude. Less frequent crying. Less pronounced feeling of guilt” in data set [1] (Case No. 4, melancholic depressive relapse, 25 mg daily for 45 days, with NOZINAN 25 mg); “Improvement of mood. Less frequent crying. Improved appetite” in data set [1] (Case No. 5, depressive syndrome in an alcoholic of the melancholic type, 5 mg daily for 30 days, with vitamins, NOZINAN (50 mg), ARTANE 5); “Decrease of hypochondriac complaints. Patient less irritable and apprehensive” in data set [1] (Case No. 6, hypochondriac delirium with anxiety, 25 mg daily for 30 days, with ARTANE 10 mg […]). Moreover, the “Tolerance, biological” value in data set [1] (setting [2]), in data set [1] (setting [3]), in data set [1] (setting [4]), in data set [1] (setting [5]), in data set [1] (setting [6]) and in data set [1] (setting [7]) was “N.A.D” each time. Moreover, the “Tolerance, clinical” value in data set [1] (setting [2]) was “N.A.D”; in data set [1] (setting [3]), “N.A.D”; in data set [1] (setting [4]) it was “N.A.D”; in data set [1] (setting [5]), “N.A.D”; in data set [1] (setting [6]) it was “slight dizziness and nausea”; in data set [1] (setting [7]), “slight vertigo”.
For the compound `CN1CCC23NC(=O)CC(c4cc(Cl)ccc4O2)C3C1` (single isomer, unassigned) [Example 5 B, 4a-amino-8-chloro-2-methyl-1,2,3,4,4a,10a-hexahydro[10 H]benzopyrano[3,2c]pyrid-10-ylacetic acid lactam], in the data set with ptosis with reserpine, the “ED50 (dose inhibiting reserpine ptosis by an average of 50%)” value is on record as 11 mg/kg.
One may read the ED50 as the dose at which the effect has come halfway, by size or by number of responders. For orientation: LD50 means the dose expected to kill half of the subjects tested. Lower therefore signals greater toxicity. Consider `COc1ccc2c(c1)C1CC(=O)NC3(CCN(C)CC13)O2` (single isomer, unassigned) [Example 18, 4a-amino-8-methoxy-2-methyl-1,2,3,4,4a,10a-hexahydro[10 H]benzopyrano[3,2-c]pyrid-10-ylacetic acid lactam], for which, in the data set with ptosis with reserpine, the ED50 worked out at 0.67 mg/kg. In addition, the LD50 in the data set “in vivo” (setting [8]) worked out at 1200 mg/kg.
Turning to `CN(C)CCC=C1c2ccccc2CCc2ccccc21` [Amitriphthyline, 3-dimethylamino propylidene-5-dibenzo [a,d] 1,4-cycloheptadiene hydrochloride, reference compound], the 50% effective dose (ED50) in the data set with ptosis with reserpine was determined as 10 mg/kg. Moreover, the LD50 in “in vivo” came to 150 mg/kg.
With `CN1CCC23NC(=O)CC(c4cc(Br)ccc4O2)C3C1` (centres unmarked) [Example 6, 4a-amino-8-bromo-2-methyl-1,2,3,4,4a,10a-hexahydro[10 H]benzopyrano[3,2-c]pyrid-10-ylacetic acid lactam], the ED50 in the data set on ptosis with reserpine was 0.1 mg/kg. The 50% lethal dose (LD50) in “in vivo” (setting [8]) came out at 720 mg/kg.
For the compound `Cc1ccc2c(c1)C1CC(=O)NC3(CCN(C)CC13)O2` (centres unmarked) [Example 7, 4a-amino-28-dimethyl-1,2,3,4,4a,10a-hexahydro[10 H]benzopyrano[3,2-c]pyrid-10-ylacetic acid lactam], the ED50 with ptosis with reserpine is 3.5 mg/kg. Moreover, the LD50 in “in vivo” (setting [8]) stood at 1200 mg/kg.
In the same order, the values of `CN1CCC23NC(=O)CC(c4cc(F)ccc4O2)C3C1` (centres unmarked) [Example 8, 4a-amino-8-fluoro-2-methyl-1,2,3,4,4a,10a-hexahydro[10 H]benzopyrano[3,2-c]pyrid-10-ylacetic acid lactam] are 1 mg/kg and 1080 mg/kg.
In the same order, the values of `CC(=O)N1CCC23NC(=O)CC(c4ccccc4O2)C3C1` (centres unmarked) [Example 9, 4a-amino-2-acetyl-1,2,3,4,4a,10a-hexahydro[10 H]benzopyrano[3,2-c]pyrid-10-ylacetic acid lactam] are 5 mg/kg and above 3200 mg/kg.
Taken in the same sequence, the figures for `CN1CCC23NC(=O)CC(c4c(ccc5ccccc45)O2)C3C1` (centres unmarked) [Example 10, 7a-amino-10-methyl-7a,8,9,10,11,11a-hexahydro[12 H]benzo[f]benzopyrano[3,2-c]pyrid-12-ylacetic acid lactam] were 1.8 mg/kg and 600 mg/kg.
`CN1CCC23NC(=O)CC(c4cc([N+](=O)[O-])ccc4O2)C3C1` (centres unmarked) [Example 15, 4a-amino-8-nitro-2-methyl-1,2,3,4,4a,10a-hexahydro[10 H]benzopyrano[3,2-c]pyrid-10-ylacetic acid lactam]: in the data set with ptosis with reserpine, the ED50 came to 0.6 mg/kg. The compound also returned a median lethal dose (LD50) in “in vivo” (setting [8]) of 2470 mg/kg.
In the case of `CCOC(=O)N1CCC23NC(=O)CC(c4cc(Cl)ccc4O2)C3C1` (centres unmarked) [Example 27, 4a-amino-8-chloro-2-ethoxycarbonyl-1,2,3,4,4a,10a-hexahydro[10 H]benzopyrano[3,2-c]pyrid-10-ylacetic acid lactam], the ED50 in the data set on ptosis with reserpine amounted to 0.37 mg/kg. This compound also returned an LD50 in “in vivo” above 1600 mg/kg.
Taken in the same sequence, the figures for `COC(=O)N1CCC23NC(=O)CC(c4cc(Cl)ccc4O2)C3C1` (centres unmarked) [Example 28, 4a-amino-8-chloro-2-methoxycarbonyl-1,2,3,4,4a,10a-hexahydro[10 H]benzopyrano[3,2-c]pyrid-10-ylacetic acid lactam] were 0.25 mg/kg and 1100 mg/kg.
For `CN1CCC23Oc4ccc(Cl)cc4C(CC(=O)N2C)C3C1` (centres unmarked) [Example 36, 8-chloro-2-methyl-4a-methylamino-1,2,3,4,4a,10a-hexahydro[10 H]benzopyrano[3,2-c]pyrid-10-ylacetic acid lactam], the ED50 in the data set on ptosis with reserpine is 0.7 mg/kg. Also, the LD50 in “in vivo” (setting [8]) was found to be 600 mg/kg.
Consider `CN(C)CCCN1c2ccccc2CCc2ccccc21` [Imipramine, N-(3-dimethylaminopropyl) iminodibenzyl hydrochloride, reference compound], for which the ED50 with ptosis with reserpine came out at 2.9 mg/kg.

For the origin of these results see patent US4201783A, “Antidepressant substituted hexahydro benzopyrano [3,2-c] pyridines” (Lipha Lyonnaise Industrielle Pharmaceutique, priority 1977, dated 1980).
